pEC50: −log10 of the molar value. Structures can show the parent of a compound that is named as a salt.
Columns and labels:
B16F10 = assay: CellTiter-Glo cell viability assay (example 57); assay type: cell-based, human; conditions: Mus musculus, B16-F10; B16F10 (Melanoma); Cell Titer-Glo; 72 h
A375 = assay: Cell proliferation assay at 10 μM; assay type: cell-based, human; conditions: Homo sapiens, A-375, 72 h, read-out: Cell viability observed at 10 μM
Description: (§1) The human melanoma cell line A375 and colorectal carcinoma cell line HCT-116 were cultured in Dulbecco's modified Eagle's medium supplemented with 10% fetal bovine serum and 1% Penicillin-Streptomycin. The human leukemia cell line MOLM-14 was cultured in Minimum Essential Medium Alpha Medium supplemented with 10% Fetal Bovine Serum and 1% Penicillin-Streptomycin. All the cell lines were maintained at 37° C. with 5% CO2.
(§2) Briefly, adherent cells, A375 and HCT-116 cells were respectively plated at 800 or 5,000 cells per well onto 96-well plates in 90 μL of media per well and were allowed to grow overnight before the assay.
(§3) Compounds were added at different concentrations to each well, and cell cultures were incubated for 72 h. Vehicle (DMSO or H2O) was used as a control, and all compounds were tested in a constant percentage of vehicle. Cell outgrowth was measured using for adherent cells CellTiter […] Aqueous One Solution Cell Proliferation Assay (Promega) and for cell suspension, Sulforhodamine B colorimetric assay as described in Vichai et al. (Vichai, V. and Kirtikara, K. Nat. Protoc. 2006 (1) 1112-1116). Absorbance was measured using an Infinite F200 Pro or Sunrise TECAN plate reader.
(§4) In each experiment, each point represents the average of two replicates in cell culture.
(§5) Results are presented in Table 1 below for concentrations of 10 μM of tested compounds.

HCT-116 [1] = assay: EC50 determination in cancer cell lines; assay type: cell-based, human; conditions: Homo sapiens, HCT-116, 72 h
Description: as §3
(§6) The human melanoma cell line A375, colorectal carcinoma cell line HCT-116, hepatocellular carcinoma cell line HepG2 were cultured in Dulbecco's modified Eagle's medium supplemented with 10% fetal bovine serum and 1% Penicillin-Streptomycin. The human melanoma cell lines SK-MEL-28 and SK-MEL-5 were cultured in Minimum Essential Medium. The colorectal carcinoma cell lines HT-29 and Colo205 were respectively cultured in Mc Coy's and RPMI media. The human leukemia cell lines MV4-11 and KG-1 were cultured in Iscove's Modified Dulbecco's Media. The human leukemia cell line MOLM-14 was cultured in Minimum Essential Medium Alpha Medium supplemented with 10% Fetal Bovine Serum and 1% Penicillin-Streptomycin All culture media were supplemented with 10% fetal bovine serum and 1% Penicillin-Streptomycin except for MV4-11 cell line 20% fetal bovine serum and 1% Penicillin-Streptomycin. All the cell lines were maintained at 37° C. with 5% C02.
Briefly, adherent cells, A375, HCT-116, HepG2, SK-MEL-28, SK-MEL-5, HT-29 and Colo205 cells were respectively plated at 800, 5,000, 7,000, 2,500, 3,000-5,000, 5,000 or 5,000 cells per well onto 96-well plates in 90 μL of media per well and were allowed to grow overnight before the assay. For MV4-11 and KG-1 cells that grow in suspension, 40,000-60,000 cells were plated onto 96-well plates immediately before the assay. MOLM-14 cell line, that grow in suspension, 30,000 cells were plated onto 96-well plates immediately before the assay. […]
(§7) The experimental data are analyzed using a computer program, Graphpad Prism (GraphPad Software, Inc. La Jolla, Calif.) and EC50 values were determined as the dose of compound required to reduce absorbance values to 50% of the signal obtained for vehicle treated cell cultures and were a mean of at least two independent experiments except for EC50 values with (*) where […].

[2] = test system: PBMC Healthy voluntary donor; assay: Cell growth inhibition assay, PBMC of healthy donors; assay type: cell-based, human; conditions: Homo sapiens, PBMC
Description: (§8) Each compound was added at different concentrations (combinations of six concentrations) to each well, and cell cultures were incubated for 48 h. Vehicle (H2O) was used as a control, and all compounds were tested in a constant percentage of vehicle. Cell outgrowth was measured using the CellTiter-Glo luminescent cell viability assay as described by the manufacturer (Promega, Ref G7571 Madison, Wis., USA) using a Centro (Berthold, France) plate reader. In each experiment, each point represents the average of triplicates in cell culture. The experimental data are analyzed using a computer program, Graphpad Prism (GraphPad Software, Inc.

A-375 = assay: EC50 determination in cancer cell lines; assay type: cell-based, human; conditions: Homo sapiens, A-375, 72 h
Description: as §3, §6
(§9) Briefly, adherent cells, A375, HCT-116, HepG2, SK-MEL-28, SK-MEL-5, HT-29 and Colo205 cells were respectively plated at 800, 5,000, 7,000, 2,500, 3,000-5,000, 5,000 or 5,000 cells per well onto 96-well plates in 90 μL of media per well and were allowed to grow overnight before the assay. For MV4-11 and KG-1 cells that grow in suspension, 40,000-60,000 cells were plated onto 96-well plates immediately before the assay. MOLM-14 cell line, that grow in suspension, 30,000 cells were plated onto 96-well plates immediately before the assay.
(§10) The cell growth measure was the same as described in example 51.
as §7

HCT-116 [3] = assay: Cell proliferation assay at 10 μM; assay type: cell-based; conditions: Homo sapiens, HCT-116, 72 h, read-out: Cell viability observed at 10 μM
Description: as §1, §2, §3, §4, §5

SK-MEL-5 = assay: EC50 determination in cancer cell lines; assay type: cell-based; conditions: Homo sapiens, 72 h
Description: as §3, §6, §9, §10, §7

KG-1 = assay: EC50 determination in cancer cell lines; assay type: cell-based; conditions: Homo sapiens, 72 h
Description: as §3, §6, §9, §10, §7

SK-MEL-28 = assay: EC50 determination in cancer cell lines; assay type: cell-based; conditions: Homo sapiens, 72 h
Description: as §3, §6, §9, §10, §7

MOLM-14 [4] = assay: EC50 determination in cancer cell lines; assay type: cell-based; conditions: Homo sapiens, 72 h
Description: as §3, §6, §9, §10, §7

MV4-11 = assay: EC50 determination in cancer cell lines; assay type: cell-based; conditions: Homo sapiens, 72 h
Description: as §3, §6, §9, §10, §7

[5] = test system: patient derived acute myeloid leukemia (AML) cell lines; assay: Cell growth inhibition assay, patient derived AML cells; assay type: cell-based, human; conditions: Homo sapiens, 48 h
Description: as §8, with “The patient derived acute myeloid leukemia (AML) cells were obtained after written informed consent under the Institut Paoli Calmette (IPC) institutional review board approval and under the strict compliance of the Helsinki declaration on medical research involving human subjects. […] Each” for “Each”

MOLM-14 [6] = assay: Cell proliferation assay at 10 μM; assay type: cell-based, human; conditions: Homo sapiens, MOLM-14, 72 h, read-out: Cell viability observed at 10 μM
Description: as §1
For MOLM-14 cell line, which grows in suspension, 30,000 cells were plated onto 96-well plates immediately before the assay.
as §3, §4, §5

[7] = Encapsulation efficiency of XIX-2 in PLGA-PLGAPEG nanoparticules (HPLC); assay type: physicochemical
Description: According to the general procedure described elsewhere (see for example Kumar, K. et al. J. Controlled Release 2013 (171) pp 208-215 and Danhier, F. et al. Int. J. Pharm. 2010 (392) pp 20-28) a nanoparticule PLGA-PLGAPEG (70/30, w/w) formulation of compound XIX-2 was prepared. Briefly, XIX-2 loaded PLGA (L:G 50:50, Mw 7,000-17,000, acid terminated) and PLGA-PEG (L:G 50:50, 15% of PEG, PLGA Mw 28,000; PEG Mw 5,000) nanoparticles were prepared by O/W emulsion-solvent evaporation technique. 35 mg of PLGA polymer and 15 mg of PLGA-PEG polymer was dissolved in 1 ml of a solution of XIX-2 in dichloromethane (10 mg/ml) and vortexed to obtain a uniform PLGA-PLGAPEG solution. Then, 2 ml of a 1% sodium cholate aqueous solution was added and the resulting biphasic system was sonicated (Branson sonifier, USA) at 70 W for 15 s. This emulsion was added dropwise to 100 ml of a 1% sodium cholate aqueous solution at 37° C. and stirred at 600 rpm for 1 h. The nanoparticle suspension was then washed twice in distilled water by centrifugation (Avanti-JE centrifuge, Beckman coulter, USA) for 60 min at 10,000 t·min^−1 and 4° C. Supernatants were collected to evaluate encapsulation efficiency of XIX-2. Empty nanoparticles were prepared with the same procedure except the addition of XIX-2 during the preparation of the formulation. The particles can be stored in solution at +4° C. or then freeze dried (Labconco, USA) and stored at 4° C. until further use.
Encapsulation efficiency estimated the amount of XIX-2 encapsulated in PLGA-PLGAPEG nanoparticules. Supernatants were used to measure the non-encapsulated XIX-2. Nanoparticules were dissolved in 1 ml of mobile phase to evaluate the encapsulated XIX-2. An HPLC system (Waters Breeze) with a diode array detector and multiple wavelength detector was used for the quantification of XIX-2 in supernatants and nanoparticles. […]
The coefficients of variation (CV) for intra- and inter-assay measurements were within 5%. The encapsulation efficiency of XIX-2 is given by [XIX-2 used−XIX-2 non-encapsulated)/XIX-2 used]×100 and XIX-2 recovery was calculated.

HepG2 = assay: EC50 determination in cancer cell lines; assay type: cell-based, human; conditions: Homo sapiens, HepG2, 72 h
Description: as §3, §6, §9, §10, §7

Colo205 = assay: EC50 determination in cancer cell lines; assay type: cell-based; conditions: Homo sapiens, COLO 205, 72 h, * n>2
Description: as §3, §6, §9, §10, §7

HT-29 = assay: EC50 determination in cancer cell lines; assay type: cell-based; conditions: Homo sapiens, 72 h, * n>2
Description: as §3, §6, §9, §10, §7

SMILES	viability at 10 µM (A375)	pEC50 (HCT-116 [1])	pEC50 (A-375)	viability at 10 µM (HCT-116 [3])	pEC50 (SK-MEL-5)	pEC50 (KG-1)	pEC50 (SK-MEL-28)	pEC50 (MOLM-14 [4])	pEC50 (MV4-11)	viability at 10 µM (MOLM-14 [6])	pEC50 (HepG2)	pEC50 (Colo205)	pEC50 (HT-29)	other results
COc1cccc2c1C(=O)c1c(O)c3c(c(O)c1C2=O)C[C@@](O)(C(=O)CO)C[C@@H]3O[C@H]1C[C@H](N)[C@H](O)[C@H](C)O1 [Doxorubicine, doxorubicin]	–	–	–	–	–	–	–	–	–	–	–	–	–	pEC50 (B16F10): 6.70
CC(C)(C)NC1CCN(c2cc(-c3ccc(Cl)c(Cl)c3)nc3ccccc23)CC1 [XIV-8, 2-(3,4-dichloro-phenyl)-4-(4-N-tert-butylamino-piperidin-1-yl)quinoline dihydrochloride]	< 20%	5.30	5.22	< 20%	5.22	5.40	5.40	5.30	5.40	< 20%	–	–	–	pEC50 ([2]; PBMC Healthy voluntary donor 1): 4.51; pEC50 ([2]; PBMC Healthy voluntary donor 2): 4.85; pEC50 ([5]; Patient 3, subtype Tri8): 5.10; pEC50 ([5]; Patient 8, subtype FLT3−): 4.60; pEC50 ([5]; Patient 9, subtype FLT3+): 4.40; pEC50 ([5]; Patient 10, subtype Inv 3): 4.70; pEC50 ([5]; Patient 12, subtype 5 & 7): < 4.40; pEC50 ([5]; Patient 13, subtype MLL): < 4.40; pEC50 ([5]; Patient 16, subtype Inv 3): 4.77
CCN(CC)C1CCN(C(C)c2cc(-c3ccccc3)nc3ccccc23)CC1 (stereo not shown) [XIX-2, 2-phenyl-4-{1-[4-(N,N-diethylamino)-piperidin-1-yl]-eth-1-yl}quinoline]	–	–	–	–	–	–	–	–	–	–	–	–	–	Concentration of XIX-2 in nanoparticules dispersion ([7]; PLGA-PLGAPEG (70/30, w/w) nanoparticules, HPLC): 3210 µM; Loading ([7]; PLGA-PLGAPEG nanoparticules, [XIX-2 encapsulated/PLGA-PLGAPEG used] × 100): 2.5%; Encapsulation efficiency ([7]; PLGA-PLGAPEG nanoparticules; [XIX-2 used − XIX-2 nonencapsulated)/XIX-2 used] × 100): 9.4%
Clc1ccc2c(NC3CCN(Cc4ccccc4)CC3)cc(-c3ccccc3)nc2c1 [XXVIII-2, 7-chloro-2-phenyl-4-[(N-benzylpiperidin-4-yl)-amino]quinoline hydrochloride salt]	< 20%	4.92	5.05	< 20%	5.05	5.00	5.15	5.00	5.30	< 20%	4.59	5.05	4.89	–
Clc1ccc2c(CNC3CCN(Cc4ccccc4)CC3)cc(-c3ccccc3)nc2c1 [XXXIII-2, 7-chloro-2-phenyl-4-[(N-benzyl-piperidin-4-yl)aminomethyl]quinoline hydrochloride salt]	40 to 60%	4.89	5.05	20 to 40%	5.22	5.10	5.22	5.05	5.30	40 to 60%	4.80	5.05	4.85	–

— patent US10179770B2, “Quinolines derivatives as novel anticancer agents” (GENOSCIENCE PHARMA, priority 2013, dated 2019)
